# Measurements taken from US20050048539A1, “Methods to monitor molecule conformation and molecule/molecule proximity” (The General Hospital Corporation, priority 2003, published 2005).
# Assays:
# [1] = test system: APP and PS1 (PS1/γ-secretase complex); test: FLIM assay for PS1 loop-APP C-terminus proximity in CHO cells treated with γ-secretase inhibitors; format: cell-based, Chinese hamster; conditions: WT PS1 CHO cells; donor PS1 loop-FITC, acceptor APP770-CY3; 4 h with DAPT 500 nM or WPE-III-31C 1 μM; non-FRET control 2600 ± 110, untreated 2290 ± 216
# Experimental: (§1) Chinese hamster ovary (CHO) cells stably transfected with APP770 and either wild type PS1 (wt PS1) or Aspartate mutant PS1 (D257A PS1) were grown in OPTI-MEM with 5% fetal bovine serum and appropriate antibiotics (Puromycin or Zeocin, respectively, (Berezovska et al., 2000)).
# Cells were fixed and immunostained 24 hrs posttransfection as described previously (Jack, C. et al., Brain Res Mol Brain Res 87: 166-174, 2001). We used a polyclonal C8 antibody (Selkoe, D. et al., Proc Natl Acad Sci USA 85: 7341-7345, 1988) to detect the C-terminus of APP. A monoclonal antibody to the loop region of PS1 (Chemicon, Temecula, Calif.) was used to identify the γ-secretase complex. PS1 N-terminal X81 antibody was a gift from D. Selkoe (Brigham and Women's Hospital, Boston, Mass.); PS1 C-terminal antibody was purchased from R&D Systems, Inc., Minneapolis, Minn.). For FRET/FLIM studies we chose Cy3-labeled goat anti-rabbit as the acceptor fluorophore, and FITC-labeled goat anti-mouse as the donor fluorophore.
# Fluorescence Lifetime Imaging Microscopy (FLIM) relies on the observation that fluorescence lifetimes (the time of fluorophore emission after brief excitation, measured in picoseconds) are shorter in the presence of a FRET acceptor. […] We used a high-speed Hamamatsu detector and hardware/software from Becker and Hickl (Berlin, Germany) to measure fluorescence lifetimes on a pixel-by-pixel basis. […]
# The following controls were used to establish and validate the FLIM assay: (1) As a negative control, FITC lifetime was measured in the absence of the acceptor. […] (2) As a positive control, FITC lifetime was measured in the presence of an acceptor. […] By contrast, the FITC fluorescence lifetime (FLIM image) within the area where the acceptor was photobleached reverts to a longer lifetime (color-coded as blue), identical to the lifetime of FITC in the absence of an acceptor (as in the negative control, FIG. 7A). […]
# If there was no interaction, lifetimes on the order of ˜2600 psec were observed. If FRET was detected, a population with a statistically shorter lifetime (<˜2400 psec) was observed.
# APP and PS1 = test: Photobleach dequenching FRET assay between APP and PS1; format: cell-based, Chinese hamster
# Experimental: Fluorescence Resonance Energy Transfer (FRET) measurements were made using a BioRad1024 confocal microscope mounted on a Nikon Eclipse TE300 inverted Microscope. A krypton-argon laser was used to excite FITC and Cy3 (excitation wavelengths at 488 and 568 nm, respectively). FRET was measured using a method developed for laser scanning confocal microscopy (McLean, P. J. et al., J Biol Chem 275: 8812-8816, 2000; Kinoshita, A. et al., J Neurosci 21: 8354-8361, 2001). The amount of FRET was calculated as a percent increase in donor (FITC) fluorescence intensity after photobleaching the acceptor (Cy3) in a small part of the cell (˜8×8 μm). This ratio was then normalized to the percent change in FITC fluorescence intensity in a non-bleached area of the cell. The percent change in fluorescence intensity was compared to the null hypothesis value of 1.0 by one-group t-tests.
# FRET arises when donor and acceptor molecules are <10 nm apart. […] A small area within the cell was photobleached at 568 nm (acceptor only), and FITC fluorescence intensity (at 488 nm) was measured before and after photobleaching.
# Treatment with γ-secretase inhibitors (or Asp mutations in PS1) prevents processing of substrates at γ-secretase site. […] This was also true for the D257A PS1 mutation; we observed 25.9±11% (n=8, P<0.05) increase in FITC-fluorescence intensity, compared to a non-FRET control.
# Aβ secretion = test: Aβ production after DAPT treatment (sister cultures); format: cell-based, Chinese hamster
# Experimental: as §1
# We investigated whether APP and PS1 interactions would still be observed if γ-secretase function was inhibited.
# [2] = test system: full-length APP, BACE1 and APP CTFs; test: Western blot of full-length APP, BACE1 and APP CTFs in N2a cells transfected with human APP751; format: cell-based, mouse; conditions: 1 μM DAPT
# Experimental: For the Western Blot analysis, the cells were lysed in 1% Triton X-100 and electrophoresed in 10-20% SDS-polyacrylamide Tris-Glycine gels. The immunoblotting was performed using the APP C8 antibody (Selkoe, D. J. et al., Proc. Natl. Acad. Sci. USA 85, 7341-7345, 1988), mouse actin (Sigma-Aldrich) or rabbit BACE1 (Calbiochem), followed by detection with ECL reagent (Perkin Elmer, Boston, Mass.). Bands on films were quantitated (Odyssey software, LI-COR, Nebraska) and the values normalized to actin expression.
# We further examined whether NSAIDs lead to a decrease in γ-secretase activity. Inhibition of γ-secretase activity leads to accumulation of C99 and C83 (APP CTFs) and decreased release of AICD. Mouse N2a neuroblastoma cells were transfected with human APP751, and were treated with different NSAIDs and a Western blot was performed for full-length APP and APP CTFs (FIG. 16A). […] Next we asked whether NSAIDs alter generation of AICD and examined the effects of NSAIDs on the ability of APP-Gal4 to be cleaved by γ-secretase, releasing the Gal4-AICD fragment which activates a Gal4-dependent, artificially expressed, luciferase plasmid (Cao, X. et al., Science 293: 115-120, 2001). […]
smiles,measurement,setting,value
C[C@H](NC(=O)Cc1cc(F)cc(F)c1)C(=O)N[C@H](C(=O)OC(C)(C)C)c1ccccc1 [DAPT],FITC Lifetime (psec) mean ± SD,[1],2416 ± 118 (n = 9) psec
same,"association of APP with PS1 (photobleach FRET, FIG. 10)",APP and PS1; DAPT-treated cells,does not prevent close association of APP with PS1
same,FRET: percent increase in FITC fluorescence intensity after photobleaching Cy3,"APP and PS1; wt PS1/APP770 cells, DAPT treatment, untreated 11.6±3%",19.8±2%
same,Aβ secretion,Aβ secretion,significant decrease
same,APP CTFs (Western blot),[2],accumulation of APP CTFs
